Patent publication US12144814B2, “Compositions containing paraxanthine and beta-hydroxybutyrate or precursor for increasing neurological and physiological performance” (priority 2023, dated 2024)

Assays:
mice [1] = test: Forced Swim Test on mice; format: in vivo
mice [2] = test: Cook's Pole Climbing Test on mice; format: in vivo
healthy young adults [3] = test: Go/No Go Attention and Inhibitory Control Test; format: in vivo; conditions: 200 mg paraxanthine; 5 g BHB; 200 mg paraxanthine and 5 g BHB; baseline and 1-6 hours after supplementation; FIG. 4
Excerpt: Attention and inhibitory control can be measured using a Go/No Go Test, which is used to measure a participant's capacity for sustained attention and response control. The Go/No Go Test is routinely used in the field, and will be familiar to those of skill in the art. In the Go/No Go Test, participants watch a 2×2 array of squares, and then there is a successive presentation of letters (e.g., either P or R) and the participant responds to a target letter by pressing the corresponding button on a keyboard. The single letter (P or R) is presented in one of the 4 squares for 500 milliseconds, with 1500 milliseconds between subsequent stimuli. For the P-Go condition, participants are asked to press the P key in response to the letter P, and abstain from responding to the letter R. For the R-reversal condition, the participants are asked to respond to the letter R, and abstain when seeing the letter P. Mean response time, as well as percentage of correct answers are recorded. When running each such tests, subjects are given either paraxanthine+BHB, paraxanthine alone, BHB alone, or a placebo. The dosage amounts are 200 mg paraxanthine and 5 g of BHB, 200 mg of paraxanthine alone, 5 g of BHB alone, or a placebo. The testing is conducted under double blind, placebo controlled conditions. […]

[4] = Clinical Stroop Test study; format: in vivo; conditions: paraxanthine 200 mg; BHB 5 g; paraxanthine 200 mg with BHB 5 g; 6-week period; FIGS. 15A-15C
Excerpt: The Stroop effect refers to the delay in reaction time between congruent and incongruent stimuli. […] When paired with paraxanthine, the combination provides a synergistic improvement in mental acuity.

[5] = Age-related cognitive decline study; format: in vivo; conditions: BHB 5 g
[6] = Clinical Resting Energy Expenditure study; format: in vivo; conditions: paraxanthine 100 mg or 300 mg; BHB 5 g; paraxanthine 100 mg or 300 mg with BHB 5 g; 180-day period
Description: FIGS. 16A-16B show expected results of a clinical Resting Energy Expenditure study, where participants are supplemented with paraxanthine alone (100 mg or 300 mg), BHB alone (5 g), or paraxanthine (100 mg or 300 mg) in combination with BHB (5 g) over a 180-day period. […] Because of the presence of the BHB ketone body component, such increased metabolic rate is also more likely to occur within the context of ketogenic state, where fat is principally used as the caloric energy source for the increased resting metabolic rate.

healthy young adults [7] = test: Vigilance Task Test; format: in vivo; conditions: 200 mg paraxanthine; 5 g BHB; 200 mg paraxanthine and 5 g BHB; baseline and 1-6 hours after supplementation; FIG. 6
Excerpt: The Vigilance Task Test is another test routinely used in the field, and is used to evaluate a participants ability to sustain attention. The Vigilance Task Test is a sustained attention, reaction timed task test that measures the speed with which participants respond to a visual stimulus. The subjects respond to visual stimuli (e.g., a red dot) by pressing a key as soon as it appears on the computer screen. The light turns on at random, e.g., roughly every couple of seconds or so during the test. The speed of response is measured. Due to the random nature of the test, there is no learning effect. Mean response time is recorded. When running each such tests, subjects are given either paraxanthine+BHB, paraxanthine alone, BHB alone, or a placebo. The dosage amounts are 200 mg paraxanthine and 5 g of BHB, 200 mg of paraxanthine alone, 5 g of BHB alone, or a placebo. The testing is conducted under double blind, placebo controlled conditions. The subjects include 13 healthy young adults (10 male, 3 female), aged 24±5 years; height 170.0±11.8 cm; weight 72.9±19.3 kg.

[8] = cited from earlier work
[9] = cited from earlier work; for Total plasma clearance: in vivo; for half-life: elimination half-life, FIG. 3
dopaminergic neurons = conditions: cited from earlier work
[10] = elevated doses; cited from earlier work
[11] = metabolite of caffeine, FIG. 2; cited from earlier work

With `C[N+](C)(C)CCOP(=O)([O-])OC[C@H](O)CO` [Alpha-GPC] the “Duration of Immobility” value (mice [1]; Alpha-GPC 200 mg) was 9.38 min, the “Duration of mobility/active swimming” value (mice [1]; Alpha-GPC 200 mg) was 20.63 min and the “No. of Climbing” value (mice [2]; Alpha-GPC 200 mg) was 5.5.
For `CC(O)CC(=O)O` (stereo not drawn) [BHB, beta-hydroxybutyrate], the “Duration of Immobility” value (mice [1]; BHB 5 g) was 9.5 min, the “Duration of mobility/active swimming” value (mice [1]; BHB 5 g) was 20 min and the “Go/No Go Test correct responses” value (healthy young adults [3]) was “decrease in correct answers over time”. For the same molecule, the “Stroop test number of correct answers” value [4] was “little if any benefit”, the “Stroop test reaction speed” value [4] was “little if any benefit” and the Acetylcholine [5] was 58 U/mL. It also gave a BDNF [5] of 775 pg/mL, a Catalase [5] of 28 U/mL and a Dopamine [5] of 475 ng/L. The “Escape Latency” value [5] was 50 s, the Glutathione [5] was 22 µg/mL and the “No. of Climbing” value (mice [2]; BHB 5 g) was 6. For the same molecule, the resting energy expenditure [6] was “only a minor benefit” and the “Vigilance Task Test average response time” value (healthy young adults [7]) was “significantly slower reaction times”.
With `CCNC(=O)CC[C@H](N)C(=O)O` [L-Theanine, L-theanine] the “Duration of Immobility” value (mice [1]; L-Theanine 50 mg) was 8.74 min, the “Duration of mobility/active swimming” value (mice [1]; L-Theanine 50 mg) was 21.26 min and the “No. of Climbing” value (mice [2]; L-Theanine 50 mg) was 4.38.
With `NCCS(=O)(=O)O` [Taurine, taurine] the “Duration of Immobility” value (mice [1]; Taurine 500 mg) was 9.61 min, the “Duration of mobility/active swimming” value (mice [1]; Taurine 500 mg) was 20.39 min and the “No. of Climbing” value (mice [2]; Taurine 500 mg) was 6.5.
For `CC(O)CC(=O)O` (stereo not drawn) [beta-hydroxybutyric acid], the pKa [8] is listed as 4.70.
For `Cn1c(=O)c2c(ncn2C)n(C)c1=O` [caffeine], the Total plasma clearance [9] is given as 2.07 mL/min/kg and the “protection against neurodegeneration and the loss of synaptic function” value (dopaminergic neurons) is given as “marginal protection”.
In the case of `NC(=O)C[S+]([O-])C(c1ccccc1)c1ccccc1` (centres unmarked) [modafinil], the “hypothermia and reduced locomotor activity” value [10] is given as “induce hypothermia and reduced locomotor activity”.
In the case of `Cn1cnc2c1c(=O)[nH]c(=O)n2C` [theobromine], the half-life [9] is listed as 7.2 h and the Total plasma clearance [9] is listed as 1.2 mL/min/kg.
In the case of `Cn1c(=O)c2[nH]cnc2n(C)c1=O` [theophylline], the “share of the methylxanthine metabolic by-products” value [11] is given as 4%, the half-life [9] is given as 6.2 h and the Total plasma clearance [9] is given as 0.93 mL/min/kg.
